The nature of this data set: recombinant UMI read abundance after kanamycin selection (control-corrected) (log10(CPM+1)); higher = more efficient recombination; extreme values may be limits of the assay; sequences stand for … in AGTGCAGAGAAAATCGGCCAGTTTTCTCTGCCTGCAGTCCGCATGCCGTGGGACCCCTTGGGTTCTAACCTGTTGCCTAGATTTATGCAGCGGACTGCCTTTCTCCCAAAGTGATAAACCGG…AGGTTGGTTTCACT; site = the 11-nt donor. The gist of the method: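 Counts of recombinant UMIs were reported as log10(CPM+1). Before that, they were converted to CPM, averaged over replicates and scaled using control-derived factors. They came from PCR across the donor–target junction after Escherichia coli carrying the pair library and target plasmid was plated on IPTG (0.07 mM) plus kanamycin, or unselected, in two replicates each.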
As for “CGAAGTGCATGGACCGGTTTTCCCGGTAATCCGTATTTGTT (site CGAAGTGCTAA)”, the “recombinant UMI read abundance (log10)” value came out at 2.57.
With “CGAATCCCATGGACCGGTTTTCCCGGTAATCCGTATTTGCA (site CGAATCCCTTG)” the figure was 1.55; with “CGAATTACATGGACCGGTTTTCCCGGTAATCCGTATTTGGC (site CGAATTACTGC)”, 1.14.
The result for “CGAATTCCATGGACCGGTTTTCCCGGTAATCCGTATTTGCG (site CGAATTCCTCG)” reads 0.935; that for “CGAATTCCATGGACCGGTTTTCCCGGTAATCCGTATTTGTT (site CGAATTCCTAA)”, 0.99.
With “CGAATTCCATGGACCGGTTTTCCCGGTAATCCGTATTTGTT (site CGGAATCCTAA)” the figure was 0.
As for “CGACACGCATGGACCGGTTTTCCCGGTAATCCGTATTTGTT (site CGACACGCTAA)”, the “recombinant UMI read abundance (log10)” value is 2.
The result for “CGACCATCATGGACCGGTTTTCCCGGTAATCCGTATTTGGC (site CGACCATCTGC)” reads 3.07.
With “CGACCGTCATGGACCGGTTTTCCCGGTAATCCGTATTTGCA (site CGACCGTCTTG)” the figure was 3.11; with “CGAGCAGCATGGACCGGTTTTCCCGGTAATCCGTATTTGCT (site CAAGCAGCTAG)”, 1.13; with “CGAGCAGCATGGACCGGTTTTCCCGGTAATCCGTATTTGCT (site CCAGCAGCTAG)”, 0.0072.
With “CGAGCAGCATGGACCGGTTTTCCCGGTAATCCGTATTTGCT (site CGAGCAGCTAG)” the figure was 2.13.
In the case of “CGAGCAGCATGGACCGGTTTTCCCGGTAATCCGTATTTGCT (site CGATCATCTAG)”, the “recombinant UMI read abundance (log10)” value was found to be 0.
With “CGAGCAGCATGGACCGGTTTTCCCGGTAATCCGTATTTGCT (site CTAGCAGCTAG)” the figure was 0.852; with “CGAGCATCATGGACCGGTTTTCCCGGTAATCCGTATTTGCA (site CGAGCATCTTG)”, 2.46.
With “CGAGCATCATGGACCGGTTTTCCCGGTAATCCGTATTTGCA (site CGATCATCTAG)” the figure was 0.
With “CGAGCATCATGGACCGGTTTTCCCGGTAATCCGTATTTGTT (site CGAGCATCTAA)” the figure was 2.61; with “CGAGCATCATGGACCGGTTTTCCCGGTAATCCGTATTTGTT (site CGATCATCTAG)”, 0; with “CGAGCCTCATGGACCGGTTTTCCCGGTAATCCGTATTTGGC (site CGAGCCTCTGC)”, 2.21.
As for “CGAGCTTCATGGACCGGTTTTCCCGGTAATCCGTATTTGAA (site CGAGCTTCTTT)”, the “recombinant UMI read abundance (log10)” value came out at 1.88.
As for “CGAGGACCATGGACCGGTTTTCCCGGTAATCCGTATTTGAG (site CGAGGACCTCA)”, the “recombinant UMI read abundance (log10)” value is 0.015.
With “CGAGGACCATGGACCGGTTTTCCCGGTAATCCGTATTTGAG (site CGAGGACCTCC)” the figure was 0.
With “CGAGGACCATGGACCGGTTTTCCCGGTAATCCGTATTTGAG (site CGAGGACCTCG)” the figure was 0.00506; with “CGAGGACCATGGACCGGTTTTCCCGGTAATCCGTATTTGAG (site CGAGGACCTCT)”, 0.00302.
In the case of “CGAGGAGCATGGACCGGTTTTCCCGGTAATCCGTATTTGGA (site CGAGGAGCTTC)”, the “recombinant UMI read abundance (log10)” value is 1.57.
With “CGAGGATCATGGACCGGTTTTCCCGGTAATCCGTATTTGAC (site CGAGGATCTGT)” the figure was 2.99; with “CGAGGATCATGGACCGGTTTTCCCGGTAATCCGTATTTGAC (site CTAGTATCTGT)”, 0.
With “CGAGGGCCATGGACCGGTTTTCCCGGTAATCCGTATTTGCA (site CGAGGGCCTTG)” the figure was 0.708.
With “CGAGGGCCATGGACCGGTTTTCCCGGTAATCCGTATTTGGG (site CGAGGACCTCC)”, the “recombinant UMI read abundance (log10)” value amounted to 0.0191.
Consider “CGAGGGCCATGGACCGGTTTTCCCGGTAATCCGTATTTGGG (site CGAGGCCCTCC)”, for which the “recombinant UMI read abundance (log10)” value was 0.0184.
With “CGAGGGCCATGGACCGGTTTTCCCGGTAATCCGTATTTGGG (site CGAGGGCCTCC)” the figure was 0.0164; with “CGAGGGCCATGGACCGGTTTTCCCGGTAATCCGTATTTGGG (site CGAGGTCCTCC)”, 0.0269.
The result for “CGAGTACCATGGACCGGTTTTCCCGGTAATCCGTATTTGGG (site CGAGAACCTCC)” reads 0; that for “CGAGTACCATGGACCGGTTTTCCCGGTAATCCGTATTTGGG (site CGAGCACCTCC)”, 0.0141; that for “CGAGTACCATGGACCGGTTTTCCCGGTAATCCGTATTTGGG (site CGAGGACCTCC)”, 0.00419.
With “CGAGTACCATGGACCGGTTTTCCCGGTAATCCGTATTTGGG (site CGAGTACCTCC)” the figure was 0.0186.
“CGAGTGCCATGGACCGGTTTTCCCGGTAATCCGTATTTGTT (site CGAGTGCCTAA)”: the “recombinant UMI read abundance (log10)” value was found to be 0.52.
With “CGATAACCATGGACCGGTTTTCCCGGTAATCCGTATTTGGT (site CGATAACCTAC)” the figure was 0; with “CGATACTCATGGACCGGTTTTCCCGGTAATCCGTATTTGCT (site CGATACTCTAG)”, 2.52; with “CGATACTCATGGACCGGTTTTCCCGGTAATCCGTATTTGCT (site CGATCATCTAG)”, 0.
Regarding “CGATAGACATGGACCGGTTTTCCCGGTAATCCGTATTTGCC (site AGATAGACTGG)”, the “recombinant UMI read abundance (log10)” value turned out to be 0.
For “CGATAGACATGGACCGGTTTTCCCGGTAATCCGTATTTGCC (site CGATAGACTGG)”, the “recombinant UMI read abundance (log10)” value worked out at 2.96.
In the case of “CGATAGACATGGACCGGTTTTCCCGGTAATCCGTATTTGCC (site GGATAGACTGG)”, the “recombinant UMI read abundance (log10)” value is 0.
Regarding “CGATAGACATGGACCGGTTTTCCCGGTAATCCGTATTTGCC (site TGATAGACTGG)”, the “recombinant UMI read abundance (log10)” value was 0.
With “CGATAGCCATGGACCGGTTTTCCCGGTAATCCGTATTTGCT (site CGATAGCCTAG)” the figure was 1.12.
The result for “CGATATACATGGACCGGTTTTCCCGGTAATCCGTATTTGTA (site CGATATACTTA)” reads 2.25; that for “CGATATGCATGGACCGGTTTTCCCGGTAATCCGTATTTGGG (site CGATATGCTCC)”, 0.685; that for “CGATCAACATGGACCGGTTTTCCCGGTAATCCGTATTTGGT (site CGATCAACTAC)”, 0.796.
As to “CGATCAACATGGACCGGTTTTCCCGGTAATCCGTATTTGGT (site CGATCATCTAG)”, the “recombinant UMI read abundance (log10)” value was determined as 0.
In the case of “CGATCACCATGGACCGGTTTTCCCGGTAATCCGTATTTGCC (site CGATCACCTGG)”, the “recombinant UMI read abundance (log10)” value is 0.
With “CGATCACCATGGACCGGTTTTCCCGGTAATCCGTATTTGCC (site CGATCATCTAG)” the figure was 0; with “CGATCACCATGGACCGGTTTTCCCGGTAATCCGTATTTGCT (site CGATCAACTAG)”, 0; with “CGATCACCATGGACCGGTTTTCCCGGTAATCCGTATTTGCT (site CGATCACCTAG)”, 0.
With “CGATCACCATGGACCGGTTTTCCCGGTAATCCGTATTTGCT (site CGATCAGCTAG)”, the “recombinant UMI read abundance (log10)” value came out at 0.
As to “CGATCACCATGGACCGGTTTTCCCGGTAATCCGTATTTGCT (site CGATCATCTAG)”, the “recombinant UMI read abundance (log10)” value came to 0.
With “CGATCAGCATGGACCGGTTTTCCCGGTAATCCGTATTTGCA (site CGATCAGCTTG)”, the “recombinant UMI read abundance (log10)” value was 1.9.
The result for “CGATCAGCATGGACCGGTTTTCCCGGTAATCCGTATTTGCA (site CGATCATCTAG)” reads 0; that for “CGATCAGCATGGACCGGTTTTCCCGGTAATCCGTATTTGCT (site CGATCAACTAG)”, 0; that for “CGATCAGCATGGACCGGTTTTCCCGGTAATCCGTATTTGCT (site CGATCACCTAG)”, 0.
With “CGATCAGCATGGACCGGTTTTCCCGGTAATCCGTATTTGCT (site CGATCAGCTAG)” the figure was 1.61; with “CGATCAGCATGGACCGGTTTTCCCGGTAATCCGTATTTGCT (site CGATCATCTAG)”, 0.
With “CGATCATCATGGACCGGTTTTCCCGGTAATCCGTATTTGGT (site CGATCATCTAA)” the figure was 0.00543; with “CGATCATCATGGACCGGTTTTCCCGGTAATCCGTATTTGGT (site CGATCATCTAC)”, 1.58.
In the case of “CGATCATCATGGACCGGTTTTCCCGGTAATCCGTATTTGGT (site CGATCATCTAG)”, the “recombinant UMI read abundance (log10)” value was 0.495.
The result for “CGATCATCATGGACCGGTTTTCCCGGTAATCCGTATTTGGT (site CGATCATCTAT)” reads 1.08; that for “CGATCGACATGGACCGGTTTTCCCGGTAATCCGTATTTGCT (site CGATCGACTAA)”, 0.3.
The result for “CGATCGACATGGACCGGTTTTCCCGGTAATCCGTATTTGCT (site CGATCGACTAC)” reads 0.00923; that for “CGATCGACATGGACCGGTTTTCCCGGTAATCCGTATTTGCT (site CGATCGACTAG)”, 2.63.

The record behind these values is the supplement of paper PMC11208160.
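Also: IS621 bridge recombinase in Escherichia coli cells against a fixed T5 target plasmid.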
